Measurements published in ChEMBL document CHEMBL5465560, “Selectivity Literature for EUbOPEN Chemogenomic Library” (2024).
Each block holds one compound with its values, some of them ahead of it.

Tests used:
[1] = target: P2X purinoceptor 1 (Homo sapiens) (UniProt P51575); assay: Selectivity interaction (Eurofins CEREP Diversity Profile (receptors and ion channels)) EUB0000279b P2RX1; conditions: at 10 µM
SRSF protein kinase 1 = SRSF protein kinase 1 (Homo sapiens, UniProt Q96SB4); assay: Selectivity interaction (Kinase panel (literature)) EUB0001199aCl SRPK1; conditions: at 1 µM
[2] = target: Microtubule-associated serine/threonine-protein kinase 1 (Homo sapiens) (UniProt Q9Y2H9); assay: Selectivity interaction (KinomeScan (DiscoverX)) EUB0000618a MAST1; conditions: at 10 µM
[3] = target: Calcium/calmodulin-dependent protein kinase type II subunit alpha (Homo sapiens, UniProt Q9UQM7); assay: Selectivity interaction (KinomeScan (DiscoverX)) EUB0000607a CAMK2A; conditions: at 10 µM
[4] = target: Phosphatidylinositol 4-kinase beta (Homo sapiens, UniProt Q9UBF8); assay: Selectivity interaction (ActivX KiNativ screen (ex vivo kinase selectivity in human PBMCs)) EUB0001619a PI4KB; assay type: cell-based; conditions: PBMC, at 1 µM
[5] = target: T1, Tyrosine-protein kinase ZAP-70 (Homo sapiens) (UniProt P43403); assay: Selectivity interaction (KinomeScan (DiscoverX)) EUB0001619a ZAP70; conditions: at 1 µM
T1 sequence (whole entry): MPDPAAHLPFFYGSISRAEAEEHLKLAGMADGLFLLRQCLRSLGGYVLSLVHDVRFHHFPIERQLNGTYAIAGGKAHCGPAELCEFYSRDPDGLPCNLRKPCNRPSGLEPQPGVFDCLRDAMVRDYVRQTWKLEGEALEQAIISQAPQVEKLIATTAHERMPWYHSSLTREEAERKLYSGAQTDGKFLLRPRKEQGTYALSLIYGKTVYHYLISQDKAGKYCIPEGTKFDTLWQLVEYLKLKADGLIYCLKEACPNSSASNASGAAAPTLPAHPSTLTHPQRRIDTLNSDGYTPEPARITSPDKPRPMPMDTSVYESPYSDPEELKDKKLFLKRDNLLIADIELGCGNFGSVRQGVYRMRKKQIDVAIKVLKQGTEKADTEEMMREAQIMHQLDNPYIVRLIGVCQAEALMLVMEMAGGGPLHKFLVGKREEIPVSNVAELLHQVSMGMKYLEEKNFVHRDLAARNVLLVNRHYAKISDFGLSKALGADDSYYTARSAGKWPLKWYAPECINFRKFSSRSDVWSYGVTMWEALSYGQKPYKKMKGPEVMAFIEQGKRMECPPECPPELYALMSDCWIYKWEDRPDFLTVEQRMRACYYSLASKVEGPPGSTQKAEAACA

[6] = target: Cyclin-dependent kinase-like 1 (Homo sapiens) (UniProt Q00532); assay: Selectivity interaction (KinomeScan (DiscoverX)) EUB0000595a CDKL1; conditions: at 10 µM
[7] = target: RAC-gamma serine/threonine-protein kinase (Homo sapiens, UniProt Q9Y243); assay: Selectivity interaction (Upstate Kinase Profiler service (Millipore)) EUB0000056c AKT3; conditions: at 1 µM
[8] = target: T2, MAP kinase-activated protein kinase 5 (Homo sapiens) (UniProt Q8IW41); assay: Selectivity interaction (Kinase panel (Invitrogen)) EUB0000639a MAPKAPK5; conditions: at 200 nM
T2 sequence (whole entry): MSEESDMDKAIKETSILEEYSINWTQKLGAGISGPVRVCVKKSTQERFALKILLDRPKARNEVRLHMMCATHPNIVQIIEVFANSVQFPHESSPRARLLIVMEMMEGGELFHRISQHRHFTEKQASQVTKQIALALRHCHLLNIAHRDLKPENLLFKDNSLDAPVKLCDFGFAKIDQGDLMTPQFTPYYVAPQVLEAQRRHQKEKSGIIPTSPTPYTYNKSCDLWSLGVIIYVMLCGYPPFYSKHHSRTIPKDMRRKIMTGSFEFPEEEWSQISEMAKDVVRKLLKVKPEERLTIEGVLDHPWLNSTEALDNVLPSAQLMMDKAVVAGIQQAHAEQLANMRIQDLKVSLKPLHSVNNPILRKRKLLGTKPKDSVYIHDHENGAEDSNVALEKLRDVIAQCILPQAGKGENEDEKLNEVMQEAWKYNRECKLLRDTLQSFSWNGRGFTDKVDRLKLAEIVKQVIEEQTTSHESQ

[9] = target: CDK2/Cyclin A2 (Homo sapiens) (UniProt P24941+P20248); assay: (§1) Selectivity interaction (ProQinase) EUB0000171b CDK2; assay type: protein-complex assay
[10] = target: Cyclin-dependent kinase 2/cyclin E1 (Homo sapiens) (UniProt P24864+P24941); assay: as §1; assay type: protein-complex assay
[11] = target: T3, Protein kinase C zeta type (Homo sapiens) (UniProt Q05513); assay: Selectivity interaction (ProQinase) EUB0000171b PRKCZ; conditions: at 5 µM
T3 sequence (whole entry): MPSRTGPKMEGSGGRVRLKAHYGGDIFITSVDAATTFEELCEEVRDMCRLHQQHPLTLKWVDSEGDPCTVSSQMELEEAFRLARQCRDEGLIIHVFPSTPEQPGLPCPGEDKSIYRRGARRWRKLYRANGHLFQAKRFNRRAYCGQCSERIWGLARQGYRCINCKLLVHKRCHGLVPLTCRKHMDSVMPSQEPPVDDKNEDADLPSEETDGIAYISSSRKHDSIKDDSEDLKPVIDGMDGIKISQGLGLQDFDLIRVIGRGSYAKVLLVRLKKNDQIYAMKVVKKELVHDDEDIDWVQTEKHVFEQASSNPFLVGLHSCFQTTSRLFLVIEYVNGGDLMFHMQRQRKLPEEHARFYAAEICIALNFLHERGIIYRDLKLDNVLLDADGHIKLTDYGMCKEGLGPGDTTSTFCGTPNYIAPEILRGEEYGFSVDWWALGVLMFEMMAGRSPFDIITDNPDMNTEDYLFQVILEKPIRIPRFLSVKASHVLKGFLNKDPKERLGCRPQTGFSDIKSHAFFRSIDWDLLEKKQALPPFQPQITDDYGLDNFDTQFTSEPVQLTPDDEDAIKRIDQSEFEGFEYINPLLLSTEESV

KCNQ1 = KCNQ1 (Homo sapiens, UniProt P51787); assay: Selectivity interaction (Panel of kinases, GPCRs, ion channels and transporters (enzymatic assay)) EUB0000266bCl KCNQ1

Chain of SRSF protein kinase 1 (Q96SB4 whole entry): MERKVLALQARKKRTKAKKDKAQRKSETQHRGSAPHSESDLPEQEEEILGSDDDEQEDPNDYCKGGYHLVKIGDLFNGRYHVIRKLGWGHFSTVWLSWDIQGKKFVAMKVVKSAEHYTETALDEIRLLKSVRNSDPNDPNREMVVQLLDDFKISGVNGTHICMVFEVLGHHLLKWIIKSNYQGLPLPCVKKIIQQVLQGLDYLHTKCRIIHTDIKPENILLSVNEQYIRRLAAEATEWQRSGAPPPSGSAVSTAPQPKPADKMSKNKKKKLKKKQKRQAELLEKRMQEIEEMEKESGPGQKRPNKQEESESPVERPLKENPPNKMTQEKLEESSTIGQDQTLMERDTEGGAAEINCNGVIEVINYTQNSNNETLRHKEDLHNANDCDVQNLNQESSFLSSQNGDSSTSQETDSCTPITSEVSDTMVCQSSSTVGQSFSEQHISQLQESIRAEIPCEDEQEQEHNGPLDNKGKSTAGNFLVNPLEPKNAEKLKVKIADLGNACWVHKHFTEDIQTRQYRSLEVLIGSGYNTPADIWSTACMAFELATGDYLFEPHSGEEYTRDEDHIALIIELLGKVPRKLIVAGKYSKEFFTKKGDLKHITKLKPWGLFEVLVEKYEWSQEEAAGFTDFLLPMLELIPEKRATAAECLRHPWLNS
Chain of Microtubule-associated serine/threonine-protein kinase 1 (Homo sapiens) (Q9Y2H9 whole entry, looked up): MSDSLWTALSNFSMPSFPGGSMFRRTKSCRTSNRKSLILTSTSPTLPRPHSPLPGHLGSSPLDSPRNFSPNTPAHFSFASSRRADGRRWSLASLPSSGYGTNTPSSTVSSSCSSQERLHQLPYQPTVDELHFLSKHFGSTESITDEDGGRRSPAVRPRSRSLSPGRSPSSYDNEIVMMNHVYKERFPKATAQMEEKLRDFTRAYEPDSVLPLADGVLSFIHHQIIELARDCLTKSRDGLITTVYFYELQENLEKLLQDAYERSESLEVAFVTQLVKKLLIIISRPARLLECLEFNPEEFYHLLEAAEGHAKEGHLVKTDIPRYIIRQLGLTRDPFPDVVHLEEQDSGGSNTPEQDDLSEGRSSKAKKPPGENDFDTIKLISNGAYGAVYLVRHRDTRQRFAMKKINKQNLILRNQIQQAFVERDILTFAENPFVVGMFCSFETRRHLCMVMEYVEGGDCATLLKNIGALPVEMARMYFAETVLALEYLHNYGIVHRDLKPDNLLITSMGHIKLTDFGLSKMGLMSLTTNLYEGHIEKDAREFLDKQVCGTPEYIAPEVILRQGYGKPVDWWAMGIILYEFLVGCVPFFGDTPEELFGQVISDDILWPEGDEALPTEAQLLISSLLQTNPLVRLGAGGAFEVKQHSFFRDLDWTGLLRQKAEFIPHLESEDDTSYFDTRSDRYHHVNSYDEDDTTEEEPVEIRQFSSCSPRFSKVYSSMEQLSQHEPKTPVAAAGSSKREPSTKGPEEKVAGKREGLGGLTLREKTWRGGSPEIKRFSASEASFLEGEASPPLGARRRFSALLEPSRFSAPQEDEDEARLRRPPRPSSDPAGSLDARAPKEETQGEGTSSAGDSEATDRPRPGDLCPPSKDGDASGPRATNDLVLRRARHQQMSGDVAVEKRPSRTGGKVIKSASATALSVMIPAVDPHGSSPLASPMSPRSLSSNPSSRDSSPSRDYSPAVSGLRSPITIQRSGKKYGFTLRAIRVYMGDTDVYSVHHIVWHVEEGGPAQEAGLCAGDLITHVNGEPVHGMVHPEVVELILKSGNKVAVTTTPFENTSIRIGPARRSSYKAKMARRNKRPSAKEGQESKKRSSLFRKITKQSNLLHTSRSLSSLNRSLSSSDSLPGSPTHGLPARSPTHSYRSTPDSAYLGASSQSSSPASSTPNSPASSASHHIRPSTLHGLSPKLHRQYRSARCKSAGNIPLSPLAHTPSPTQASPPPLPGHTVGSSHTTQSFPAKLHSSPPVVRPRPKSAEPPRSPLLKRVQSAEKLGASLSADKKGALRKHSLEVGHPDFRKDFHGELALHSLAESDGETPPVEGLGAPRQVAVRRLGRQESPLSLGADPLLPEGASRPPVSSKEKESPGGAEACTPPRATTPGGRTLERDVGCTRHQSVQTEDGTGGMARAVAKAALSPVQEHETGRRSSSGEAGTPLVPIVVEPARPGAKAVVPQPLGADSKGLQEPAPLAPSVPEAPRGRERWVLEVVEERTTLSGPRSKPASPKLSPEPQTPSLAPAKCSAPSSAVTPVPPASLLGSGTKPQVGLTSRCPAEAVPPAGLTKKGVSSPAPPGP
Chain of P2X purinoceptor 1 (Homo sapiens) (P51575 whole entry): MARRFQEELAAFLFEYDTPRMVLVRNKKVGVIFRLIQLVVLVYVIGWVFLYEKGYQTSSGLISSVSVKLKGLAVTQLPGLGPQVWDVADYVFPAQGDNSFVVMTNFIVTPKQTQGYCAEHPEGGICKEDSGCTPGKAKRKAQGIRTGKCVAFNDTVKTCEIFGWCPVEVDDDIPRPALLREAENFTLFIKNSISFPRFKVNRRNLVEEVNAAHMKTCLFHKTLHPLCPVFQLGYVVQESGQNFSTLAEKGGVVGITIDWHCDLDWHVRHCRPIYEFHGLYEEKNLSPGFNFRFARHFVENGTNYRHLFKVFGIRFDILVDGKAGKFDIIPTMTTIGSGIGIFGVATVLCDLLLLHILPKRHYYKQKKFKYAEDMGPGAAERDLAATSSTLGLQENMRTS
Chain of Cyclin-dependent kinase-like 1 (Homo sapiens) (Q00532 whole entry): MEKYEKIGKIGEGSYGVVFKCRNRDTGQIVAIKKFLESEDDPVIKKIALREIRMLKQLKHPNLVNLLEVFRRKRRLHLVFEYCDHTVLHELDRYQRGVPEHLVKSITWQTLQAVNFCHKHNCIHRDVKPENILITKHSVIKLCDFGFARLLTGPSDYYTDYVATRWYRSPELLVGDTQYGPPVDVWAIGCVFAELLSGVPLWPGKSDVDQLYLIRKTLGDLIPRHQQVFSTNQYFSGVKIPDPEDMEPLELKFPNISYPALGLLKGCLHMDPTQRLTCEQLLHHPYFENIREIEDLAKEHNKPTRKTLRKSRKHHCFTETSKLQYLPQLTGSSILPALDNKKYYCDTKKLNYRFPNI
Chain of Phosphatidylinositol 4-kinase beta (Q9UBF8 2-816 limits assumed): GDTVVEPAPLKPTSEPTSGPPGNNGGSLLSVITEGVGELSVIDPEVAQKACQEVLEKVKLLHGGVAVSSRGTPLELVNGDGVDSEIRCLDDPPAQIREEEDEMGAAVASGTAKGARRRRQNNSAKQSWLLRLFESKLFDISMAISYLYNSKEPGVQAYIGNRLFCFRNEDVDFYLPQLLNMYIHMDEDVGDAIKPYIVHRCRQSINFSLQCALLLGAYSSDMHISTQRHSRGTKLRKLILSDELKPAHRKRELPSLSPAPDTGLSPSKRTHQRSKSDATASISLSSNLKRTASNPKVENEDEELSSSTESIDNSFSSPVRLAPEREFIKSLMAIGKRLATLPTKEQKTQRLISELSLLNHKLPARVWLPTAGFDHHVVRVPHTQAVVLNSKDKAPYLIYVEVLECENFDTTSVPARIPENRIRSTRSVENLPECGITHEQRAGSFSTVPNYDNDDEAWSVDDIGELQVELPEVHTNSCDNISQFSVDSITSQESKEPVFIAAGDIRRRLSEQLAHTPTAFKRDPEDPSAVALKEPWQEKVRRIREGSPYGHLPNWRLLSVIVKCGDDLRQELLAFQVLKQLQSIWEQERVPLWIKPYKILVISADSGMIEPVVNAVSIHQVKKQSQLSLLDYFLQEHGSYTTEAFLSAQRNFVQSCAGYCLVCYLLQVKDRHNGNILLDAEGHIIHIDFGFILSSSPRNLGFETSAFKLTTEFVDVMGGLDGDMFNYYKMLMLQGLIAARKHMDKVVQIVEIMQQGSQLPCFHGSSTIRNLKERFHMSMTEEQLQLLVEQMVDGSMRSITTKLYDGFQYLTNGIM
Chain of RAC-gamma serine/threonine-protein kinase (Q9Y243 whole entry): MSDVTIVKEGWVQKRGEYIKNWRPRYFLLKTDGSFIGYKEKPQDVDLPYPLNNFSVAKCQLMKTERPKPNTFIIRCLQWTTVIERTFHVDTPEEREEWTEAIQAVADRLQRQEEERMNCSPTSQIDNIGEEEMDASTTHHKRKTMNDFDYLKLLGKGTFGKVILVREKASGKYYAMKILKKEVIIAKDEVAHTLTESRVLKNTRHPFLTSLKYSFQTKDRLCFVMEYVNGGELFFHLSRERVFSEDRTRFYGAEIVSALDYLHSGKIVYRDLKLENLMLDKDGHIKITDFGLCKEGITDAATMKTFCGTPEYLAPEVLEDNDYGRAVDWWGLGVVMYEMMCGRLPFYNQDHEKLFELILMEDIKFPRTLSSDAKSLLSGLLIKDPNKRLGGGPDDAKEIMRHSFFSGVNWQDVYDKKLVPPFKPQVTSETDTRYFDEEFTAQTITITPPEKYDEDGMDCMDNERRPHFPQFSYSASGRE
Chain of Calcium/calmodulin-dependent protein kinase type II subunit alpha (Q9UQM7 whole entry): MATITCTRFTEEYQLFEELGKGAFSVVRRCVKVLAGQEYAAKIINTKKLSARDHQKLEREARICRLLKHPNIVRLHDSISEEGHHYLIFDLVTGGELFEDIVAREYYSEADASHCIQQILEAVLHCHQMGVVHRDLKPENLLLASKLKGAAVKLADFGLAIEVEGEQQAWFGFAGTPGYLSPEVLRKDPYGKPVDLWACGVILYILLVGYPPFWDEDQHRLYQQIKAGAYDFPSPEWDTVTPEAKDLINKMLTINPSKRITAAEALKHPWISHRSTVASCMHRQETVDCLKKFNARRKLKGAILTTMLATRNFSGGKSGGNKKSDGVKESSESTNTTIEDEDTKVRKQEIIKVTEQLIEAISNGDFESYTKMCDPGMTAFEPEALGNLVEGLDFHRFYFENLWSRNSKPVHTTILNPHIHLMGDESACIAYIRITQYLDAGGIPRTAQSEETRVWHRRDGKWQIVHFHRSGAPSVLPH

Compound: O[C@H]1CC[C@H](Nc2ncc3nc(Nc4c(F)cc(F)cc4F)n([C@H]4CCOC4)c3n2)CC1
% of control [2]: 75%

Compound: CNC(=O)Nc1ccc(-c2nc(N3CC4CCC(C3)O4)c3cnn(C4CCC5(CC4)OCCO5)c3n2)cc1
% of control [3]: 100%

Compound: N#Cc1cccc(-c2c[nH]c3ncnc(N4CCOCC4)c23)c1
% of inhibition [4]: 5%
% of control [5]: 96%

Compound: COCC(=O)NC/C=C/c1ccc2ncnc(Nc3ccc(Oc4ccc(C)nc4)c(C)c3)c2c1 [CP-724714]
% of control [6]: 69%

Compound: CC[C@@H]1[C@H](F)C(=O)N[C@@H]1COc1nccc2cc(C(N)=O)c(OC)cc12 [ZIMLOVISERTIB]
% of inhibition [8]: 8.71%

Compound: CCn1c(-c2nc3cc(C(=O)N4CCCC(N)C4)ccc3n2C)cc2ccccc21 (stereo not given)
XC50 (KCNQ1): > 25.1 µM

Second part, the compound after the results:

% of control [1]: 89%
Compound: CC(=O)c1cc(-c2ccccc2OCC2CC2)c2ncccn12

% of inhibition (SRSF protein kinase 1): 8%
Compound: CN1Cc2nccc(-c3cn(C)nc3-c3ccc(F)cc3)c2C1=O

% of inhibition [7]: 0%
Compound: Cc1ccc(-c2ccc3c(ccc4sc5c(c43)NC[C@@H](C)NC5=O)n2)cn1

% of control ([9]; at 1 µM): 78%
% of control ([9]; at 5 µM): 56%
% of control ([10]; at 1 µM): 88%
% of control ([10]; at 5 µM): 62%
% of control [11]: 68%
Compound: C=CC(=O)Nc1cccc(C(=O)Nc2ccc(Nc3cc(-c4[nH]c(SC)nc4C)ccn3)cc2)c1
